US12428408B2, “Fused heterocyclic mescaline derivatives” (Enveric Biosciences Canada Inc., priority 2022, dated 2025)
Like-named read-outs stand apart in the source and are kept apart here.

Assays:
[1] = molecular target: T1, human serotonin transporter (SERT) (Homo sapiens, UniProt P31645); assay: biochemical; type: binding
T1 construct: purchased PerkinElmer RBHSTM400UA

[2] = molecular target: T2, 5-HT2B (h) (Homo sapiens, UniProt P41595); assay: Competition assay to measure binding affinity at 5-HT2B receptor; settings: test ligand 10 μM; [3H]mesulergine 2 nM
T2 construct: host or cells: CHO cells
T2 sequence (P41595 whole entry): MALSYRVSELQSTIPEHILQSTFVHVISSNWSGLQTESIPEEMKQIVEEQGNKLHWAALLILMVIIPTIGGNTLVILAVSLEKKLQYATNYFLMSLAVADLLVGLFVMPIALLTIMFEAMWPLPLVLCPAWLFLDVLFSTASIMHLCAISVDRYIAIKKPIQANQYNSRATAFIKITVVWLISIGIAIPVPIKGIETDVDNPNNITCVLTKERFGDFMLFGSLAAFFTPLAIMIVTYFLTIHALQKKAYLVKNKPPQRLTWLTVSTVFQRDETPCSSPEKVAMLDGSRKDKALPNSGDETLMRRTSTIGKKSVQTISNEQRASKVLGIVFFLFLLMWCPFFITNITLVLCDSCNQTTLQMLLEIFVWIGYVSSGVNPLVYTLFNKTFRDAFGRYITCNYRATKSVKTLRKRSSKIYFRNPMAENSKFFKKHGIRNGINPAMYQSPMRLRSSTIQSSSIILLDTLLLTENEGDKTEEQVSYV

[3] = molecular target: T3, 5-HT1D (r) (Rattus norvegicus, UniProt P28565); assay: Competition assay to measure binding affinity at 5-HT1D receptor; settings: test ligand 10 μM; [3H]serotonin 1 nM
T3 construct: host or cells: CHO cells
T3 sequence (P28565 whole entry): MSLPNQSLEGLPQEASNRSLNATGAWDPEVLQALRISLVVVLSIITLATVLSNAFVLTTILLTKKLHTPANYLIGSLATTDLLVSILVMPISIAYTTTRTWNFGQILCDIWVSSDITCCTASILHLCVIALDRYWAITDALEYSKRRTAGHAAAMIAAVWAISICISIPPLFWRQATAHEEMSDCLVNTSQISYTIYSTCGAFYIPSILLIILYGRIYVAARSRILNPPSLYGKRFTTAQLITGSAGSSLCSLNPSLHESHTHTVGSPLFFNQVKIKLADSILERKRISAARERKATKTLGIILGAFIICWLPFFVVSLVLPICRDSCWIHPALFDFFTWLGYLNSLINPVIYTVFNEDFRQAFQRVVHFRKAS

[4] = molecular target: T4, D2 (h) (Homo sapiens, UniProt P14416); assay: Competition assay to measure binding affinity at D2L receptor; settings: test ligand 10 μM; [3H]methylspiperone 0.3 nM
T4 construct: host or cells: HEK-293 cells

[5] = molecular target: T5, alpha2A (h) (Homo sapiens, UniProt P08913); assay: Competition assay to measure binding affinity at alpha2A receptor; settings: test ligand 10 μM; [3H]RX 821002 1 nM; read-out: α-2A, percent of control-specific binding
T5 construct: host or cells: CHO cells
T5 sequence (P08913 1-465): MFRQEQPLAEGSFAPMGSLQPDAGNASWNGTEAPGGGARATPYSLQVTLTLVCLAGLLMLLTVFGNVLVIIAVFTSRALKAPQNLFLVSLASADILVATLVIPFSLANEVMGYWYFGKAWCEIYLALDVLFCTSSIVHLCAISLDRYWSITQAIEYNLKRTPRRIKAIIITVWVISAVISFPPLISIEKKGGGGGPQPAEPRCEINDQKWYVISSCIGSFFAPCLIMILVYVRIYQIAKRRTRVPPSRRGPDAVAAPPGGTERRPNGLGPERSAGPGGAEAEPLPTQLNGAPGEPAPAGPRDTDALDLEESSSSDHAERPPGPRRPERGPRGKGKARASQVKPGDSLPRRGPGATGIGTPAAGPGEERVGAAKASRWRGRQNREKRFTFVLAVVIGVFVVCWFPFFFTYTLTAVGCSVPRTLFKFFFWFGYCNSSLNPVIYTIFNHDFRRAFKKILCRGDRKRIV

[6] = molecular target: T6, DAT (h) (Homo sapiens, UniProt Q01959); assay: Competition assay to measure binding affinity at dopamine transporter (DAT); settings: test ligand 10 μM; [3H]BTCP 4 nM
T6 construct: host or cells: CHO cells
T6 sequence (Q01959 whole entry): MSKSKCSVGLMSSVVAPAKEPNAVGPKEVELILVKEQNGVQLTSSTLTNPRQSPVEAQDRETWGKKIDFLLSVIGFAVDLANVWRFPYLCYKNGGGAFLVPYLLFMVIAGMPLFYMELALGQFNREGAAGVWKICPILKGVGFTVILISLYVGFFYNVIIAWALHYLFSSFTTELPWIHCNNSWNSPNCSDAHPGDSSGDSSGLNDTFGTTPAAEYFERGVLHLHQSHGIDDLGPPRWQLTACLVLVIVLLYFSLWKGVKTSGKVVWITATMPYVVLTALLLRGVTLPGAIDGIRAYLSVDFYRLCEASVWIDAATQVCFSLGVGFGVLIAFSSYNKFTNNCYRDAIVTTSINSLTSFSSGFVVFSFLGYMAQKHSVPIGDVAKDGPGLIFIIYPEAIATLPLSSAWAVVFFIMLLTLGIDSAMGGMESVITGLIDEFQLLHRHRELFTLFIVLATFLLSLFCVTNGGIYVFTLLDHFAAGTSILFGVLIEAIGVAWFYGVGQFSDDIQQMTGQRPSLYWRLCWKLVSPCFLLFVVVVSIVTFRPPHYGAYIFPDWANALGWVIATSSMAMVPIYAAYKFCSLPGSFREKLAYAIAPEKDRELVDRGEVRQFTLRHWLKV

[7] = molecular target: T7, 5-HT1A receptor (Homo sapiens, UniProt P08908); assay: 5-HT1A receptor radioligand competition assay (SPA); type: binding
T7 construct: purchased Perkin Elmer 6110501400UA
T7 sequence (P08908 1-422): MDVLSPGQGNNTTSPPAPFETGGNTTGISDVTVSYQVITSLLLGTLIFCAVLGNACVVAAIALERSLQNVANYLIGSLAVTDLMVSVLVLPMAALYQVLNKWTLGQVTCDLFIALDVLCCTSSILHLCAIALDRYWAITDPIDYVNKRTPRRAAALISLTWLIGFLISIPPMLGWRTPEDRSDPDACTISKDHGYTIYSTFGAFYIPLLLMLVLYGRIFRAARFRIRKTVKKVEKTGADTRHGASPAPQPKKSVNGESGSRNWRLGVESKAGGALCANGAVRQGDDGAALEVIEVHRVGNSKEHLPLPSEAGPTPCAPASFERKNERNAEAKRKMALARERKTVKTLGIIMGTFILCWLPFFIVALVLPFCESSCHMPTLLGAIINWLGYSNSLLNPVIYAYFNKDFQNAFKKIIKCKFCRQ

[8] = molecular target: T8, MT1 (ML1A) (h) (Homo sapiens, UniProt P48039); assay: Competition assay to measure binding affinity at MT1 receptor; settings: test ligand 10 μM; [125I]2-iodomelatonin 0.01 nM
T8 construct: host or cells: CHO cells
T8 sequence (P48039 whole entry): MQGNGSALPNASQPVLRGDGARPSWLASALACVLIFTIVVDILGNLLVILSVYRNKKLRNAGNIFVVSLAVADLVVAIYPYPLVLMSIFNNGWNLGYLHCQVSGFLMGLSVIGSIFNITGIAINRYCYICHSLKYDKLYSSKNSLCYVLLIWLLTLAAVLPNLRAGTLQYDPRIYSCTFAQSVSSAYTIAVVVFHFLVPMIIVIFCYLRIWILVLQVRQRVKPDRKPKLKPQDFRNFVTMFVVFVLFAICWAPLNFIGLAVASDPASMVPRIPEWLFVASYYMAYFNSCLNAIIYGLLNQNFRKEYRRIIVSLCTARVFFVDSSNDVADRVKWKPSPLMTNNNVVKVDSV

[9] = molecular target: T9, 5-HT1B (h) (Homo sapiens, UniProt P28222); assay: Competition assay to measure binding affinity at 5-HT1B receptor; settings: test ligand 10 μM; [3H]GR125743 1 nM
T9 construct: host or cells: Chem-1 (RBL) cells
T9 sequence (P28222 whole entry): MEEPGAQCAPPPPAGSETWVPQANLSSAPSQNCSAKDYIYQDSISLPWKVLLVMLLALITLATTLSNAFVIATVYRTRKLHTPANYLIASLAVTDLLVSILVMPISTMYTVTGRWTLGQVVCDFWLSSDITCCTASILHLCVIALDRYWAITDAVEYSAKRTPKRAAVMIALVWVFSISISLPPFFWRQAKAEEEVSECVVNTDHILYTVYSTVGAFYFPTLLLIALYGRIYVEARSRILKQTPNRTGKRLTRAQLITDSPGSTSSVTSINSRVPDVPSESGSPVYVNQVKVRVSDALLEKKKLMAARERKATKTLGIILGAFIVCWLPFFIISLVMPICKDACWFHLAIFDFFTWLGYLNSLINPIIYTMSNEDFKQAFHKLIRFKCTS

[10] = molecular target: T10, NET (h) (Homo sapiens, UniProt P23975); assay: Competition assay to measure binding affinity at norepinephrine transporter (NET); settings: test ligand 10 μM; [3H]nisoxetine 1 nM
T10 construct: host or cells: CHO cells
T10 sequence (P23975 whole entry): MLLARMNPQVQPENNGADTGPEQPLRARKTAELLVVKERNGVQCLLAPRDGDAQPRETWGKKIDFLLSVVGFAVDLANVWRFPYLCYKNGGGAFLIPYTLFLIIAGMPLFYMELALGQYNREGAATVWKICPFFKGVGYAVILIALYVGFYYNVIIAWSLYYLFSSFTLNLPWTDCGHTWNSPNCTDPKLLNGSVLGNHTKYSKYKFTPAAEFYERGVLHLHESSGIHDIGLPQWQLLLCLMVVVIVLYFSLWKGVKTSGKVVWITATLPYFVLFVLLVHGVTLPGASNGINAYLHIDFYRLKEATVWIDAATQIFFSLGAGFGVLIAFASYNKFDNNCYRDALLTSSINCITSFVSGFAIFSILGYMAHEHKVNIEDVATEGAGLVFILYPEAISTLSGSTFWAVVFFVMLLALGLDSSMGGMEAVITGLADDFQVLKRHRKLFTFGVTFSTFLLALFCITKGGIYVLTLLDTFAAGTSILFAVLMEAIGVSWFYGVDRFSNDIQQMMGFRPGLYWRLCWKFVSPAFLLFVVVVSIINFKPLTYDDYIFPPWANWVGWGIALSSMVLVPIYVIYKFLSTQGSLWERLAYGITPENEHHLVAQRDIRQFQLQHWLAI

[11] = molecular target: 5-HT2A receptor (Homo sapiens, UniProt P28223); assay: 5-HT2A receptor radioligand competition assay (SPA)
Sequence of 5-HT2A receptor (P28223 whole entry): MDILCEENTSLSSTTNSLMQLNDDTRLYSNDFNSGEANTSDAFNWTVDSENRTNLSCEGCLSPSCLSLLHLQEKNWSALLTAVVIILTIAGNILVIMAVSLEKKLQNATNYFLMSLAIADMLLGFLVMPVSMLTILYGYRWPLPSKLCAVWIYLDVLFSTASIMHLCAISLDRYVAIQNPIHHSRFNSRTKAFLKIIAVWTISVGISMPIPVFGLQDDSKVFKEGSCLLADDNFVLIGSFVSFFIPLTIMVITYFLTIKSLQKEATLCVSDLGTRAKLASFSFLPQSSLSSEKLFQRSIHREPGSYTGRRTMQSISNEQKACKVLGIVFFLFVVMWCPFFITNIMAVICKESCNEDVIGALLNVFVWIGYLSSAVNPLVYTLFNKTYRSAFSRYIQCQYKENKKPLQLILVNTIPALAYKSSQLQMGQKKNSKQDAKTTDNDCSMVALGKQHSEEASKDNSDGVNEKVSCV

[12] = molecular target: T11, D3 (h) (Homo sapiens, UniProt P35462); assay: Competition assay to measure binding affinity at D3 receptor; settings: test ligand 10 μM; [3H]methylspiperone […]
T11 construct: host or cells: CHO cells
T11 sequence (P35462 whole entry): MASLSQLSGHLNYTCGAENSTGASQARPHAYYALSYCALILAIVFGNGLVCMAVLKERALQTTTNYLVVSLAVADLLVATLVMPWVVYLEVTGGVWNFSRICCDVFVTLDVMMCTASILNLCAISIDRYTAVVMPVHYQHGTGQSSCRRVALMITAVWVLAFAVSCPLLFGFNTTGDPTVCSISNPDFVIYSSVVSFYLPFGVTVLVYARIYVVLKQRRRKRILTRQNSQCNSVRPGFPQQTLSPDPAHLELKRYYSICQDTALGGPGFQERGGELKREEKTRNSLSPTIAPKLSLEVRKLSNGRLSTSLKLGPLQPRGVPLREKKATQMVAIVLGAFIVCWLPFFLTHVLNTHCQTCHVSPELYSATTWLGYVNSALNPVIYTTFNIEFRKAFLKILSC

[13] = molecular target: T12, 5-HT2C (h) (Homo sapiens, UniProt P28335); assay: Competition assay to measure binding affinity at 5-HT2C receptor; settings: test ligand 10 μM; [125I](±)DOI 0.1 nM
T12 construct: host or cells: HEK-293 cells
T12 sequence (P28335 33-458): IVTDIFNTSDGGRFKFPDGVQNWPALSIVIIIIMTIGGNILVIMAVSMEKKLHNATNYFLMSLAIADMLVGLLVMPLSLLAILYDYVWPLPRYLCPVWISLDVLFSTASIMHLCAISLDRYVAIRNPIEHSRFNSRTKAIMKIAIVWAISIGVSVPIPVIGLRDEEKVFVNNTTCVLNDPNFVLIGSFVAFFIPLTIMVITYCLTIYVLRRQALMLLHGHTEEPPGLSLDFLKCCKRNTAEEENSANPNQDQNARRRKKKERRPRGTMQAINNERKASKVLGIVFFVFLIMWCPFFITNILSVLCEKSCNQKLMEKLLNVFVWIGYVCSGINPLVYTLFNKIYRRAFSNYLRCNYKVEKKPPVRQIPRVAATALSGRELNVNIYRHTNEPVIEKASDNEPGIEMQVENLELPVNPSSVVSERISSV

[14] = molecular target: T13, 5-HT7 (h) (Homo sapiens, UniProt P34969); assay: Competition assay to measure binding affinity at 5-HT7 receptor; settings: test ligand 10 μM; [3H]LSD 4 nM
T13 construct: host or cells: HEK-293 cells
T13 sequence (P34969 whole entry): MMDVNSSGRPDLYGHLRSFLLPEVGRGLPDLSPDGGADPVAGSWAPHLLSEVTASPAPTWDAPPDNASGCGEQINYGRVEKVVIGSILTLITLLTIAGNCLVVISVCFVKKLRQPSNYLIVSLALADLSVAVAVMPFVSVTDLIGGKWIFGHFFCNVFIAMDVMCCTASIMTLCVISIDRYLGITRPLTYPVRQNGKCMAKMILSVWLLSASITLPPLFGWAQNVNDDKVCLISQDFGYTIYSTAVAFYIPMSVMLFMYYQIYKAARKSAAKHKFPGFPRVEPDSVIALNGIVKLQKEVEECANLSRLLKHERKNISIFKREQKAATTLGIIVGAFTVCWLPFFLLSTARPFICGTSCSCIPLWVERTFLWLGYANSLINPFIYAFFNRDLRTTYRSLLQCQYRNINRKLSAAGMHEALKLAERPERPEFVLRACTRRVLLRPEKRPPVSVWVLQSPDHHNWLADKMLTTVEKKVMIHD

[15] = competition with 0.5 nM 8-hydroxy-DPAT [3H], test compound 3 nM to 1 mM, read-out: 5-HT1A, Ki

T1 sequence (P31645 whole entry): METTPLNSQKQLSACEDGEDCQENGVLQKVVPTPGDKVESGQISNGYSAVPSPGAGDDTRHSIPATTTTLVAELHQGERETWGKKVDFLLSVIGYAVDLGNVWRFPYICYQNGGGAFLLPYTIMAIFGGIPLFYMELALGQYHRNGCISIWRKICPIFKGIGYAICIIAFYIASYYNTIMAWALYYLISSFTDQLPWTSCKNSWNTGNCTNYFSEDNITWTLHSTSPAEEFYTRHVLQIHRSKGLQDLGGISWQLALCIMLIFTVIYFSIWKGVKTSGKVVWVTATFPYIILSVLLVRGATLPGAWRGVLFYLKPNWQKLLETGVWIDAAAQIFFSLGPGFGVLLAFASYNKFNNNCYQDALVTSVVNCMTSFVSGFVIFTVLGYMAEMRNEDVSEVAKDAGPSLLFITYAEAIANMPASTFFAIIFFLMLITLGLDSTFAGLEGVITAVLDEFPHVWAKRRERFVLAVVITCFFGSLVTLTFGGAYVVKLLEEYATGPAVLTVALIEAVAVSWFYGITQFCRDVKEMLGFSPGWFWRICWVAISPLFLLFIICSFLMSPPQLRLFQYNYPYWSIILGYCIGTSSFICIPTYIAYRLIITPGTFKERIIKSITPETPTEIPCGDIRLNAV

| SMILES | Ki [1] | HT2B, percent of control-specific binding [2] | HT1D, percent of control-specific binding [3] | D2, percent of control-specific binding [4] | inhibition at 10 µM [5] | DAT, percent of control-specific binding [6] | Ki [7, 15] | MT1, percent of control-specific binding [8] | HT1B, percent of control-specific binding [9] | NET, percent of control-specific binding [10] | Ki [11] | D3, percent of control-specific binding [12] | HT2C, percent of control-specific binding [13] | HT7, percent of control-specific binding [14] | Ki [7] |
| --- | --- | --- | --- | --- | --- | --- | --- | --- | --- | --- | --- | --- | --- | --- | --- |
| CC(Cc1ccc2c(c1)OCO2)NN(C)C (stereo not drawn) [A(VIII)] | 22.6 µM | 67% | 0% | 12% | 8% | 38% | 19.6 µM | 33% | 0% | 2% | 3.38 µM | 18% | 79% | 17% | – |
| COc1cc2c(cc1CNC(C)Cc1ccc3c(c1)OCCO3)OCO2 (stereo not drawn) [A(X)] | 2.36 µM | 89% | 10% | 13% | 81% | 84% | – | 15% | 0% | 49% | 12 µM | 25% | 63% | 59% | 1.1 µM |
| CC(Cc1ccc2c(c1)OCCO2)NCc1ccc2c(c1)OCO2 (stereo not drawn) [A(XII)] | 2.39 µM | 86% | 24% | 26% | 66% | 92% | – | 6% | 0% | 69% | 26 µM | 58% | 31% | 51% | 1.2 µM |
| O=C(Cc1cc2c(cc1Br)OCO2)NCCO [A(XIX)] | > 1000 µM | 7% | 0% | 0% | 10% | 0% | 586 µM | 15% | 0% | 0% | 18.8 µM | 0% | 22% | 1% | – |
| O=C(Cc1ccc2c(c1)OC(F)(F)O2)N1CCCC1 [A(XXVII)] | 634 µM | 5% | 2% | 0% | 0% | 5% | > 1000 µM | 2% | 0% | 15% | – | 0% | 9% | 0% | – |
| COc1cc2c(cc1CC(=O)NCCO)OCO2 [A(XXII)] | 52.3 µM | 14% | 5% | 0% | 0% | 0% | > 1000 µM | 18% | 0% | 1% | – | 3% | 15% | 20% | – |
| O=C(Cc1c(Br)ccc2c1OCO2)N1CCCC1 [A(XXVI)] | – | 1% | 0% | 0% | 0% | 0% | 44.4 µM | 30% | 0% | 0% | 31 µM | 0% | 1% | 0% | – |
| CON(C)C(C)Cc1ccc2c(c1)OCO2 (stereo not drawn) [A(XVIII)] | 98 µM | 9% | 0% | 0% | 0% | 5% | > 1000 µM | 6% | 6% | 1% | – | 5% | 3% | 6% | – |
